The values below come from patent US20260176300A1, “N-ARYLPYRAZOLE NOD2 AGONISTS AS PROMOTERS OF IMMUNE CHECKPOINT INHIBITOR THERAPY” (THE SCRIPPS RESEARCH INSTITUTE, priority 2022, published 2026).

The assay deals with human peripheral mononuclear blood cells (PBMCs). Put plainly: Cytokine release assay in primary human PBMCs. In kind it is cell-based. The conditions noted are these: 10 μM, 24 h. How it is done: FIG. 3(A-H). NOD2 agonist TT030 activates cytokine production in vitro and improves immune checkpoint inhibitor treatment of tumor growth in vivo. A-D, Measurements of secreted cytokine levels from human peripheral mononuclear blood cells (PMBCs) treated with the indicated compounds for 24 h without or with lipopolysaccharide (LPS). E, Structures of TT030 and its enantiomer (TT030-ent). F, Activation of NOD1- and NOD2-expressing HEK-293T cells with the indicated compounds. C12-iE-DAP is a lipophilic version of the NOD1 agonist, iE-DAP. G, Growth profiles of B16-F10 subcutaneous tumors in wild-type C57BL/6 mice treated with 100 μg α-PD-L1 and 100 μg of the indicated compounds every other day starting at Day 7. H, Growth profiles of B16-F10 subcutaneous tumors in wild-type or Nod2^−/− C57BL/6 mice treated with 100 μg α-PD-L1 and 100 μg TT030 every other day starting at Day 7. Cytokine secretion assays and NOD activation assays were analyzed using a one-way ANOVA with Dunnett's multiple comparisons test compared to the DMSO control. Longitudinal tumor growth assays were analyzed using linear mixed-effects model analysis on the log transformed data. ns=not significant, *P<0.05, **P<0.01, ***P<0.001, ****P<0.0001.
FIG. 7(A-B). NOD2 agonist TT030 activates cytokine production in vitro. A-B, Measurements of secreted cytokine levels from human peripheral mononuclear blood cells (PMBCs) treated with the indicated compounds for 24 h without or with lipopolysaccharide (LPS). Cytokine secretion assays and NOD activation assays were analyzed using a one-way ANOVA with Dunnett's multiple comparisons test compared to the DMSO control. *P<0.05, **P<0.01.
Cytokine release assay. Human PMBCs were obtained from whole blood donated by healthy individuals via the Scripps Normal Blood Donor Service. Whole blood was diluted 1:1 with phosphate-buffered saline (PBS) containing 2% FBS and then layered onto Lymphoprep (STEMCELL Technologies, 07851) in SepMate-50 isolation tubes (STEMCELL Technologies, 85480). The discontinuous gradient was centrifuged for 10 min at 1,200×g, and mononuclear cells were removed by pouring off. Mononuclear cells were then resuspended in PBS+2% FBS and centrifuged for 3 min at 200×g twice before further use. Washed mononuclear cells were then aliquoted at 5×10^5 cells per well of a 48-well plate with 300 μL RPMI containing 10% FBS (complete RPMI). Cells were then diluted with 100 μL complete RPMI containing 50 μM of the test compound (10 μM final concentration). Then, 100 μL complete RPMI (-LPS) or 100 μL complete RPMI containing […] LPS (+LPS, 10 ng mL^−1 final concentration) was added. Cells were incubated overnight at 37° C. in 5% CO2, and conditioned medium was harvested and centrifuged for 5 min at 500×g to remove residual cells. Samples were used directly for cytokine analysis with the LEGENDPlex Human Inflammatory Panel 1 (BioLegend, 740809) according to the manufacturer's protocol. For analysis, 25 μL of the conditioned medium was used for −LPS samples, and 12.5 μL was used for the +LPS samples. On-bead ELISA readouts were measured using the standard PE and APC detection filter parameters on a ZE5 flow cytometer (Bio-Rad; 405, 488, 561, and 640 lasers) in the Scripps Research Flow Cytometry Core Facility. Raw data files were then imported into the LEGENDPlex Cloud Data Analysis software suite (BioLegend) and analyzed using the manufacturer's pre-set parameters.

As to `CC(=O)N[C@H]1C(O)O[C@H](CO)[C@@H](O)[C@@H]1O[C@H](C)C(=O)N[C@@H](C)C(=O)N[C@H](CCC(=O)O)C(N)=O` (stereo partly drawn) [MDP, (4R)-4-((2S)-2-((2R)-2-(((3R,4R,5S,6R)-3-acetamido-2,5-dihydroxy-6-(hydroxymethyl)tetrahydro-2H-pyran-4-yl)oxy)propanamido)propanamido)-5-amino-5-oxopentanoic acid, reference compound], for the setting “without or with LPS”, the IFNγ levels entry was “increased”, the “interleukin-1 beta (IL-1B) in the medium” value is on record as “significant increase” and the “tumor necrosis factor alpha (TNFα) in the medium” value is on record as “significant increase”.

In the case of `CCOC(=O)CC[C@@H](NC(=O)[C@@H](NC(=O)c1c(C)nn(-c2cc[nH]c(=O)c2)c1C)C(C)C)C(=O)OCC` [TT030, Diethyl (3,5-dimethyl-1-(2-oxo-1,2-dihydropyridin-4-yl)-1H-pyrazole-4-carbonyl)-L-valyl-D-glutamate], the IL-12p70 secretion result (with and without LPS) is “increase”. Further, under “without or with LPS”, the IFNγ levels result is “increased”, the IL-18 production entry is “production”, the IL-23 production result is reported as “production” and the “interleukin-1 beta (IL-1B) in the medium” value is “equivalent concentrations”. Besides, the “tumor necrosis factor alpha (TNFα) in the medium” value (without or with LPS) was “equivalent concentrations”.
